In assay [1] the test system is Wilm's tumor WT7 xenograft. Description: Outcome of human Wilm's tumor xenograft WT7 to KSP inhibitor. As to conditions: Wilm's tumor xenograft WT7, known outcome. The format is in vivo. As to the method: (§1) Affymetrix® gene expression profiling was conducted to identify baseline expression patterns associated with sensitivity to the KSP inhibitor in human Wilm's tumor xenograft models. Total RNA from three distinct Wilm's tumors with known outcomes to Ispinesib mesylate (2-3 replicates) inhibition was labeled using a 5 μg protocol and hybridized to the HG-U133A Affymetrix® array. Baseline gene expression differences between tumors resistant (WT7 and WT8) and sensitive (WT10) to Ispinesib mesylate were compared. […] Validation by QPCR of the same tumors confirmed this expression pattern.
(In xenograft studies the graft and the host belong to different species.)

The target of a further assay is T1, KSP (Homo sapiens, UniProt P52732).
T1 sequence (P52732 1-1056): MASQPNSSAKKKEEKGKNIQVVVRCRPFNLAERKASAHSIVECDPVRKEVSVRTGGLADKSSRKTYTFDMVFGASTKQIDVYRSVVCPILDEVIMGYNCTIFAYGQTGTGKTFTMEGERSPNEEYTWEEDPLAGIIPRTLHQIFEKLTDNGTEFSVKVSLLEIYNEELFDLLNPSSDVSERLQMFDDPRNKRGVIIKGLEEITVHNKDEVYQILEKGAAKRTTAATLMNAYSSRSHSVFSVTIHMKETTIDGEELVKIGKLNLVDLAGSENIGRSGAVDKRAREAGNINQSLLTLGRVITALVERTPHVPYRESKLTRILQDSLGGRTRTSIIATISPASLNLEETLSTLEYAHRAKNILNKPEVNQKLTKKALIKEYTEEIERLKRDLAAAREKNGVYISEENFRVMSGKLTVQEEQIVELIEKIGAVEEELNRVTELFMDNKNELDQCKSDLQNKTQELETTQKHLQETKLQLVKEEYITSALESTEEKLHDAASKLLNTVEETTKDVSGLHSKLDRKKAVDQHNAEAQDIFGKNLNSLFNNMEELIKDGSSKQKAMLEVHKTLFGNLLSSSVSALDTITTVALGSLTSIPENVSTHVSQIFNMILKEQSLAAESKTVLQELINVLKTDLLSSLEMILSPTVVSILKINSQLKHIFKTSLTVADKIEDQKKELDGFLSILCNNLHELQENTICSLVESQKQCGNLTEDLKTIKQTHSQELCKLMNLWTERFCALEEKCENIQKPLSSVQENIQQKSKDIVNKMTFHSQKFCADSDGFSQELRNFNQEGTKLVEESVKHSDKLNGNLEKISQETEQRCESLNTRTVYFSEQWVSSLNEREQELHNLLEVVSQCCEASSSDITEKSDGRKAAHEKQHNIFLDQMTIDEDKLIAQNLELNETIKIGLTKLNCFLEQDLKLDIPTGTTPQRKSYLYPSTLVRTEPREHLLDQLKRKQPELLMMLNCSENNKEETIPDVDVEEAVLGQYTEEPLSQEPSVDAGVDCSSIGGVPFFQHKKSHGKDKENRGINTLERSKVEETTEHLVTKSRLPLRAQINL
As to conditions: literature statement; cited from earlier work.

Assay [2] relates to Wilm's tumor WT8 xenograft. Description: Outcome of human Wilm's tumor xenograft WT8 to KSP inhibitor. It counts as in vivo. Conditions: Wilm's tumor xenograft WT8, known outcome. The protocol: as §1
Assay [3] concerns Wilm's tumor WT10 xenograft. Description: Outcome of human Wilm's tumor xenograft WT10 to KSP inhibitor. Conditions: Wilm's tumor xenograft WT10, known outcome. The format is in vivo. As to the method: as §1
Another assay relates to Colo205 (colon cancer). The experiment in a line: Cell line sensitivity to KSP inhibitor (FACS analysis). It counts as cell-based. Conditions: Colo205 cells. The source says: (§2) Baseline expression of HSPA1a was validated in 4 cell lines: MX1 (breast cancer) and MV522 (lung cancer) resistant to Ispinesib mesylate and Colo201 (colon cancer) and Colo205 (colon cancer) sensitive to Ispinesib mesylate inhibition. Like the tumors, HSPA1a expression differentiated the resistant cell lines from the sensitive cell lines.
(§3) A more extensive list of preclinical cell lines compared with those presented in Example 2, including cell lines from both solid and liquid tumors, was analyzed. Again, these cell lines were previously determined to be either resistant or sensitive to Ispinesib mesylate using FACS analysis. […] Of the 22 cell lines analyzed, HSPA1a expression levels were correctly able to classify 19 cell lines as resistant or sensitive to the KSP inhibitor. The HSPA1a marker misclassified 2 cell lines Daudi and HCT116 as sensitive (due to low baseline expression in these cells) and HeLaS3 cell line as resistant (due to high baseline expression of HSPA1a in these cells).
In general terms: A flow cytometer gives signals particle by particle.

The next assay has as its system MX1 (breast cancer). Described as above. As to conditions: MX1 cells. It counts as cell-based.
From the text: as §2, §3

The test system of a further assay is Colo201 (colon cancer). The assay is described as above. As to conditions: Colo201 cells. The format is cell-based.
From the text: as §2, §3

The next assay concerns MV522 (lung cancer). The description is as above. It counts as cell-based. As to conditions: MV522 cells.
From the text: as §2, §3

Where a name gives a salt, the structure may show the parent alone.

Take `Cc1ccc(C(=O)N(CCCN)[C@@H](c2nc3cc(Cl)ccc3c(=O)n2Cc2ccccc2)C(C)C)cc1` [Ispinesib mesylate]: the “tumor resistant or sensitive to the compound” value was “resistant” in assay [1], “resistant” in assay [2] and “sensitive” in assay [3]. Also, the “inhibition of KSP (in words)” value on KSP is “potent and selective inhibitor of KSP”. Besides, the “cell line resistant or sensitive to the compound” value is recorded as “sensitive” in the assay with Colo205 (colon cancer), “resistant” with MX1 (breast cancer), “sensitive” in the assay with Colo201 (colon cancer) and “resistant” in the assay on MV522 (lung cancer).

These data come from patent US20090291442A1, “HSPA1A AS A MARKER FOR SENSITIVITY TO KSP INHIBITORS” (SMITHKLINE BEECHAM CORPORATION, priority 2006, published 2009).
